Experimental data as given in US20220095618A1, “HERBICIDAL COMPOSITIONS” (SYNGENTA CROP PROTECTION AG, priority 2019, published 2022).

Assays:
Assay in all cases: Post-emergence efficacy of compounds of Formula (I) (B1), glasshouse
Type in all cases: in vivo
[1] = tested on: Chenopodium album (CHEAL); settings: Chenopodium album, post-emergence, 312 h, Application Rate 500 g/Ha; evaluated after 13 days; read-out: Control of CHEAL after post-emergence application (100=total damage to plant; 0=no damage to plant)
Experimental: (§1) Seeds of a variety of test species were sown in standard Iaom-based soil in pots:— Ipomoea hederacea (IPOHE), Euphorbia heterophylla (EPHHL), Chenopodium album (CHEAL), Amaranthus palmeri (AMAPA), Lolium perenne (LOLPE), Digitaria sanguinalis (DIGSA), Eleusine indica (ELEIN), Echinochloa crus-galli (ECHCG), Setaria faberi (SETFA). After cultivation for 14 days (post-emergence) under controlled conditions in a glasshouse (at 24/16° C., day/night; 14 hours light; 65% humidity), the plants were sprayed with an aqueous spray solution derived from the dissolution of the technical active ingredient Formula (I) in a small amount of acetone and a special solvent and emulsifier mixture referred to as IF50 (11.12% Emulsogen EL360 TM+44.44% N-methylpyrrolidone+44.44% Dowanol DPM glycol ether), to create a 50 g/I solution which was then diluted to required concentration using 0.25% or 1% Empicol ESC70 (Sodium lauryl ether sulphate)+1% ammonium sulphate as diluent. The delivery of the aqueous spray solution was via a laboratory track sprayer which delivered the aqueous spray composition at a rate of 200 litres per hectare, using a flat fan nozzle (Teejet 11002VS) and an application volume of 200 litre/ha (at 2 bar).
(§2) The test plants were then grown in a glasshouse under controlled conditions (at 24/16° C., day/night; 14 hours light; 65% humidity) and watered twice daily. After 13 days the test was evaluated (100=total damage to plant; 0=no damage to plant).

[2] = tested on: Amaranthus palmeri (AMAPA); settings: Amaranthus palmeri, post-emergence, 312 h; Application Rate 500 g/Ha; evaluated after 13 days; read-out: Control of AMAPA after post-emergence application (100=total damage to plant; 0=no damage to plant)
Experimental: as §1, §2

[3] = tested on: Echinochloa crus-galli (ECHCG); settings: Echinochloa crus-galli, post-emergence, 312 h, Application Rate 500 g/Ha; evaluated after 13 days; read-out: Control of ECHCG after post-emergence application (100=total damage to plant; 0=no damage to plant)
Experimental: as §1, §2

Eleusine indica (ELEIN) = settings: Application Rate 500 g/Ha, evaluated after 13 days; for pest or weed control at 500 g/ha: Eleusine indica, post-emergence, 312 h, read-out: Control of ELEIN after post-emergence application (100=total damage to plant; 0=no damage to plant)
Experimental: as §1, §2

[4] = tested on: Digitaria sanguinalis (DIGSA); settings: Digitaria sanguinalis, post-emergence, 312 h; Application Rate 500 g/Ha; evaluated after 13 days; read-out: Control of DIGSA after post-emergence application (100=total damage to plant; 0=no damage to plant)
Experimental: as §1, §2

[5] = tested on: Euphorbia heterophylla (EPHHL); settings: Euphorbia heterophylla, post-emergence, 312 h, Application Rate 500 g/Ha; evaluated after 13 days; read-out: Control of EPHHL after post-emergence application (100=total damage to plant; 0=no damage to plant)
Experimental: as §1, §2

[6] = tested on: Ipomoea hederacea (IPOHE); settings: Application Rate 500 g/Ha, evaluated after 13 days; for pest or weed control at 500 g/ha: Ipomoea hederacea, post-emergence, 312 h, read-out: Control of IPOHE after post-emergence application (100=total damage to plant; 0=no damage to plant)
Experimental: as §1, §2

Lolium perenne (LOLPE) = settings: Application Rate 500 g/Ha, evaluated after 13 days; for pest or weed control at 500 g/ha: Lolium perenne, post-emergence, 312 h, read-out: Control of LOLPE after post-emergence application (100=total damage to plant; 0=no damage to plant)
Experimental: as §1, §2

Setaria faberi (SETFA) = settings: Setaria faberi, post-emergence, 312 h, Application Rate 500 g/Ha; evaluated after 13 days; read-out: Control of SETFA after post-emergence application (100=total damage to plant; 0=no damage to plant)
Experimental: as §1, §2

SMILES | pest or weed control at 500 g/ha [1] [%] | pest or weed control at 500 g/ha [2] [%] | pest or weed control at 500 g/ha [3] [%] | pest or weed control at 500 g/ha (Eleusine indica (ELEIN)) [%] | pest or weed control at 500 g/ha [4] [%] | pest or weed control at 500 g/ha [5] [%] | pest or weed control at 500 g/ha [6] [%] | pest or weed control at 500 g/ha (Lolium perenne (LOLPE)) [%] | pest or weed control at 500 g/ha (Setaria faberi (SETFA)) [%] | Control of IPOHE after post-emergence application (100=total damage to plant; 0=no damage to plant) [6] | Control of ELEIN after post-emergence application (100=total damage to plant; 0=no damage to plant) (Eleusine indica (ELEIN)) | Control of LOLPE after post-emergence application (100=total damage to plant; 0=no damage to plant) (Lolium perenne (LOLPE))
N[C@@H](CCC[n+]1ccc(-c2ncccn2)cn1)C(=O)O [Compound 1.030, [(1S)-1-carboxy-4-(4-pyrimidin-2-ylpyridazin-1-ium-1-yl)butyl]-ammonium dichloride] | 100 | 100 | 100 | 90 | 100 | 100 | 60 | 60 | 100 |  |  | 
Cl.O=S(=O)([O-])CC[n+]1ccc(-c2cccnn2)cn1 [Compound 1.031, 2-(4-pyridazin-1-ium-3-ylpyridazin-1-ium-1-yl)ethanesulfonate chloride] | 90 | 100 | 100 | 100 | 100 | 100 |  | 90 | 100 | 70 |  | 
N#C[N-]C(=O)CC[n+]1ccc(-c2ncccn2)cn1 [Compound 1.033] | 100 | 100 | 90 | 100 | 100 | 100 | 50 | 90 | 90 |  |  | 
Cl.O=C(O)CC[n+]1ccc(-c2cccnn2)cn1.[Cl-] [Compound 1.034, 3-(4-pyridazin-1-ium-3-ylpyridazin-1-ium-1-yl)propanoic acid dichloride] | 100 | 100 | 100 |  | 100 | 100 |  |  | 100 | 60 | 100 | 90
N[C@@H](CC[n+]1ccc(-c2ncccn2)cn1)C(=O)O [Compound 1.035, [(1S)-1-carboxy-3-(4-pyrimidin-2-ylpyridazin-1-ium-1-yl)propyl]-ammonium 2,2,2-trifluoroacetate] | 100 | 100 | 60 | 100 | 90 | 90 | 90 | 20 | 100 |  |  | 
